Several values for one entry are separate records, joined by “and”; a condition that tells them apart may be missing. Identical values can stand only once. Counter-ions that a name gives are not always drawn. Marks after values point to notes of the source that are not given here.

Series [1] can be described thus: Mixed-micellization with taurocholic acid (appearance of mixtures). In kind it is physicochemical. Here is the method:
(§1) A solution of 20 mM UqH-DMG was prepared in distilled water and incubated at 36.5 °C until the solution was translucent. The solution was combined with 10 mM TCA aqueous solution in the final molar ratios of 1:0.5–10 UqH-DMG:TCA.

A short description of series [2]: Micellization of UqH-DMG in water (visual inspection, solubilizing point vs temperature). To be noted: for Appearance of solution: 45 mM in water. In kind it is physicochemical. As to the method: UqH-DMG was diluted to intended concentrations with milliQ water in glass tubes. The test tubes were incubated in a water bath equipped with a thermometer. The solution appearance was visually inspected and the solubilizing points were plotted on a concentration versus incubation temperature curve.

A short description of a further series: Water solubility. In kind it is physicochemical. To be noted: in water. As to the method: The aqueous solubility of each ester was determined by adding 20 μmol of each compound to 1 mL distilled water in amber test tubes and incubating the tubes at 25 ± 1 °C in a constant-temperature water bath. The test tubes were shaken for 24 h and the suspensions were centrifuged at 1250× g for 10 min. The supernatants were diluted 10-fold with distilled water and assayed by the HPLC method described in Section 3.9.1.
(§2) The Shimadzu HPLC system (Shimadzu, Kyoto, Japan) consisted of a pump (LC-10AD), an autoinjector (SIL-10ADvp), a UV detector (SPD-10Avp), and a column oven (CTO-10Avp). The eluent was monitored spectrophotometrically at 280 nm. Compounds were analyzed on a YMC-Pack C8 reversed-phase column (φ 4.6 × 250 mm, YMC Co., Ltd., Kyoto, Japan) protected by a µBondapak C18 Guard-Pak (Waters Co., Milford, MA, USA) with a degassed mobile phase of methanol and 2-propanol (850/150, v/v) at 0.8 mL/min. UqH-10 and Uq-10 were quantified using linear calibration curves of peak areas versus concentrations. UqH-10 was partly oxidized during the preparation procedure. Therefore, the sum of UqH-10 and Uq-10 represented total UqH-10. Retention times were: UqH-10, 11.6 min; UqH-ester derivatives, 13.2 min and Uq-10, 15.4 min.

A short description of series [3]: Particle size by dynamic light scattering (Zetasizer Nano ZS). To be noted: mean ± SD. Format: physicochemical. As to the method: as §1
The Z-average of diameters of the particles of aqueous solution of UqH-DMG prepared in a polystyrene cuvette in Section 3.7.1. above were determined by a Zetasizer Nano ZS (MALVERN, Worcestershire, UK). The measurements were performed three independent times for each sample.

Series [4] can be described thus: Enzymatic hydrolysis of UqH-derivatives in rat liver microsomes. In kind it is in vitro ADME. The settings on record: for Km / Vmax: pH 7.4, 37 °C. Here is the method:
(§3) The hydrolysis of esters was analyzed at 37 °C in phosphate buffered saline (PBS) containing commercially available rat or human liver microsomes (In Vitro Technologies, Inc., Baltimore, MD, USA). The microsomes (20 mg/mL) were adjusted to a protein concentration of 2 mg/mL and were preincubated at 37 °C for 5 min before adding the esters.
Stock solutions of esters were prepared in ethanol. The enzymatic reactions were initiated by adding 10 µL ester stock solution (final concentration 0.1–0.4 mM) and 50 μL PBS to 940 µL of preheated reaction medium containing rat or human liver microsomes in amber test tubes. These reactions were incubated at 37 °C and, at various times, 100 μL aliquots were removed and mixed with 100 µL 10% trichloroacetic acid. Samples were then vortex mixed for 2 min and 800 µL ethyl acetate was added, with vortex mixing for 5 min. The samples were centrifuged at 1250× g for 10 min. The 20 µL organic layer was analyzed by the HPLC system described in Section 3.9.1. The initial hydrolytic rate (mM UqH-10 formed per min) was calculated from the initial slope of a plot of UqH-10 concentration versus time.
as §2
In general terms: Liver microsomes are vesicles of endoplasmic reticulum, rich in cytochrome P450 enzymes.

Details of series [5]: method as in Japanese Pharmacopoeia monograph. The settings on record: ref Japanese Pharmacopoeia monograph, cited from earlier work.
For series [6], the system named is esterases in human liver microsomes. The experiment in a line: Effect of eserine on UqH-4-DMG hydrolysis in human liver microsomes. Format: biochemical. To be noted: eserine 0–2.0 mM. Here is the method: (§4) Effects of eserine on UqH-4-DMG hydrolysis in liver microsomes was also examined, using similar methods, with 50 µL eserine aqueous solution added, instead of PBS, to the mixtures with liver microsomes. Eserine was tested at 0–2.0 mM.

The test system of series [7] is esterases in rat liver microsomes. The experiment in a line: Effect of eserine on UqH-4-DMG hydrolysis in rat liver microsomes. The settings on record: eserine 0–2.0 mM. Format: biochemical. As to the method: as §4
A short description of series [8]: Enzymatic hydrolysis of UqH-derivatives in human liver microsomes. In kind it is in vitro ADME. The settings on record: pH 7.4, 37 °C, Michaelis–Menten fit. Here is the method: as §3
Stock solutions of esters were prepared in ethanol. The enzymatic reactions were initiated by adding 10 µL ester stock solution (final concentration 0.1–0.4 mM) and 50 μL PBS to 940 µL of preheated reaction medium containing rat or human liver microsomes in amber test tubes. […] The 20 µL organic layer was analyzed by the HPLC system described in Section 3.9.1. The initial hydrolytic rate (mM UqH-10 formed per min) was calculated from the initial slope of a plot of UqH-10 concentration versus time.
The Shimadzu HPLC system (Shimadzu, Kyoto, Japan) consisted of a pump (LC-10AD), an autoinjector (SIL-10ADvp), a UV detector (SPD-10Avp), and a column oven (CTO-10Avp). The eluent was monitored spectrophotometrically at 280 nm. Compounds were analyzed on a YMC-Pack C8 reversed-phase column (φ 4.6 × 250 mm, YMC Co., Ltd., Kyoto, Japan) protected by a µBondapak C18 Guard-Pak (Waters Co., Milford, MA, USA) with a degassed mobile phase of methanol and 2-propanol (850/150, v/v) at 0.8 mL/min. […]

The mark [9] stands for this setting: calculated using generated UqH-10 levels after sequential hydrolysis.

What is called Km is the substrate concentration at which the rate is half of its maximum. As a reminder, the Vmax is the top rate of the reaction or transport when substrate is in excess. In the case of `COc1c(OC(=O)CN(C)C)c(C)c(C/C=C(\C)CC/C=C(\C)CC/C=C(\C)CC/C=C(\C)CC/C=C(\C)CC/C=C(\C)CC/C=C(\C)CC/C=C(\C)CC/C=C(\C)CCC=C(C)C)c(OC(=O)CN(C)C)c1OC` [UqH-DMG, 2,3-dimethoxy-5-methyl-6-decaprenyl-benzene-1,4-bis-N,N–dimethyl glycinate], the “Appearance of mixture with taurocholic acid” value in series [1] (UqH-DMG:TCA molar ratio 1:0.5) is given as “slightly cloudy”; in [1] (UqH-DMG:TCA molar ratios 1:1 to 1:10), “transparent”. The Appearance of solution result in series [2] (27.0 °C) was “opaque”; in series [2] (36.5 °C), “transparent”. Also, the “Krafft's point” value in series [2] (in water) was “around 36.5 °C”. Further, the solubility at 24 h in the series “Water solubility” (distilled water, read-out: Water solubility (transparent solution in water at concentrations up to)) is ≤ 5000 µM. Moreover, the Z-average particle diameter is 20.38 ± 0.14 nm and 20 nm in series [3] (20 mM in water, without TCA, prepared at 36.5 °C); 5.183 ± 0.033 nm and 5 nm in series [3] (UqH-DMG:TCA mixture at 1:1 molar ratio). In series [4] (setting [9]), the Km was 3890 µM. In [4] (setting [9]), the Vmax is on record as 0.603 ^a ×10^−6 M·min^−1.
By melting point is commonly meant the temperature of the solid-liquid transition. In turn, `COc1c(OC(=O)CN(C)C)c(C)c(C/C=C(\C)CC/C=C(\C)CC/C=C(\C)CC/C=C(\C)CC/C=C(\C)CC/C=C(\C)CC/C=C(\C)CC/C=C(\C)CC/C=C(\C)CCC=C(C)C)c(OC(=O)CN(C)C)c1OC` (as salt: hydrochloride) [UqH-DMG, 2,3-dimethoxy-5-methyl-6-decaprenyl-benzene-1,4-bis-N,N–dimethyl glycinate] gave a melting point of 179 to 181 °C.
As to `COC1=C(OC)C(=O)C(C/C=C(\C)CC/C=C(\C)CC/C=C(\C)CC/C=C(\C)CC/C=C(\C)CC/C=C(\C)CC/C=C(\C)CC/C=C(\C)CC/C=C(\C)CCC=C(C)C)=C(C)C1=O` [Uq-10, Ubiquinone-10], the Water solubility in series [5] (even when diluted to this concentration) is < 116 µM. Besides, the Water solubility descriptor result in series [5] is recorded as “practically insoluble, or insoluble”.
As for `CNC(=O)Oc1ccc2c(c1)[C@]1(C)CCN(C)[C@@H]1N2C` [eserine, physostigmine sulfate], the “Effect on UqH-4-DMG hydrolysis” value in [6] and in series [7] was “inhibited” throughout.
On to `COc1c(O)c(C)c(C/C=C(\C)CC/C=C(\C)CC/C=C(\C)CC/C=C(\C)CC/C=C(\C)CC/C=C(\C)CC/C=C(\C)CC/C=C(\C)CC/C=C(\C)CCC=C(C)C)c(OC(=O)CN(C)C)c1OC` [UqH-1-DMG], for which the “Water solubility compared with UqH bis-ester (UqH-DMG)” value in the series “Water solubility” is given as “lower”. Besides, in series [4] (Michaelis–Menten fit), the Km is 4630 µM and the maximal velocity (Vmax) amounted to 8.21e-07 M/min.
For the compound `COc1c(O)c(C/C=C(\C)CC/C=C(\C)CC/C=C(\C)CC/C=C(\C)CC/C=C(\C)CC/C=C(\C)CC/C=C(\C)CC/C=C(\C)CC/C=C(\C)CCC=C(C)C)c(C)c(OC(=O)CN(C)C)c1OC` [UqH-4-DMG], in series [1] (10-times molar-equivalents taurocholic acid), the “Solubilization with taurocholic acid” value was “solubilized”. The “Water solubility compared with UqH bis-ester (UqH-DMG)” value in the series “Water solubility” is “lower”. Moreover, the Km came out at 72.2 µM in series [8] and 75.1 µM in [4] (Michaelis–Menten fit). The Vmax came to 1.23e-07 M/min in series [8] and 1.19e-07 M/min in series [4] (Michaelis–Menten fit). For the same compound, the “Vmax/Km relative to UqH-1-DMG” value in series [4] is listed as 8.9 fold.

Source of the values: publication PMC7037610, “Novel Cationic Prodrug of Ubiquinol-10 Enhances Intestinal Absorption via Efficient Formation of Nanosized Mixed-Micelles with Bile Acid Anions” (Molecules, 2020).
